According to PMC10682503, “Structural and functional basis of inositol hexaphosphate stimulation of NHEJ through stabilization of Ku-XLF interaction” (Nucleic Acids Research, 2023):
Counter-ions that a name gives are not always drawn. Blank lines part the entries; values can stand above or below the compound they belong to.

Experiments:
[1] = biological target: T1, KuFL (full-length human Ku70–Ku80 heterodimer) (Homo sapiens, UniProt P12956+P13010); test: Isothermal titration calorimetry (ITC), KuFL with IP6 and IP6 analogues; assay type: binding; conditions: 25 °C, Ku 4 µM in cell, IPs 40 µM in syringe
T1 construct: The full-length human Ku heterodimer subunits (Ku70 1–609, Ku80 1–732); 10x His-tag with TEV site (N); made in house; host or cells: Sf21 insect cells (baculovirus, MultiBac)
T1 sequence (P12956 whole entry): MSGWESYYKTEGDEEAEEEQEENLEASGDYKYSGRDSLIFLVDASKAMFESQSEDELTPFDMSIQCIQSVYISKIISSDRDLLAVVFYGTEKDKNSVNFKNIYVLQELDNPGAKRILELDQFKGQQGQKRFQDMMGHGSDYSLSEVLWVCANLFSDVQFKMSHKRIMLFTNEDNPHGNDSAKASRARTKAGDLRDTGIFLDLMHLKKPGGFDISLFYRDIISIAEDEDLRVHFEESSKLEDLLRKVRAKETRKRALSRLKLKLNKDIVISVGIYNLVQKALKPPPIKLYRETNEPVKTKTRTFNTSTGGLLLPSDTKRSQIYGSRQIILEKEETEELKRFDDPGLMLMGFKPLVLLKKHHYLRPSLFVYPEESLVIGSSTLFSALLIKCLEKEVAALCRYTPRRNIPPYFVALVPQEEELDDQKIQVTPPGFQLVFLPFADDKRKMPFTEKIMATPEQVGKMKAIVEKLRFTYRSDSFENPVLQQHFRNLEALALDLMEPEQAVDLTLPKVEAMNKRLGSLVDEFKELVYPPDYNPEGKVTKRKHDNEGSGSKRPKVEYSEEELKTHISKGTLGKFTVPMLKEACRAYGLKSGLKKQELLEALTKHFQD
T1 sequence (P13010 whole entry): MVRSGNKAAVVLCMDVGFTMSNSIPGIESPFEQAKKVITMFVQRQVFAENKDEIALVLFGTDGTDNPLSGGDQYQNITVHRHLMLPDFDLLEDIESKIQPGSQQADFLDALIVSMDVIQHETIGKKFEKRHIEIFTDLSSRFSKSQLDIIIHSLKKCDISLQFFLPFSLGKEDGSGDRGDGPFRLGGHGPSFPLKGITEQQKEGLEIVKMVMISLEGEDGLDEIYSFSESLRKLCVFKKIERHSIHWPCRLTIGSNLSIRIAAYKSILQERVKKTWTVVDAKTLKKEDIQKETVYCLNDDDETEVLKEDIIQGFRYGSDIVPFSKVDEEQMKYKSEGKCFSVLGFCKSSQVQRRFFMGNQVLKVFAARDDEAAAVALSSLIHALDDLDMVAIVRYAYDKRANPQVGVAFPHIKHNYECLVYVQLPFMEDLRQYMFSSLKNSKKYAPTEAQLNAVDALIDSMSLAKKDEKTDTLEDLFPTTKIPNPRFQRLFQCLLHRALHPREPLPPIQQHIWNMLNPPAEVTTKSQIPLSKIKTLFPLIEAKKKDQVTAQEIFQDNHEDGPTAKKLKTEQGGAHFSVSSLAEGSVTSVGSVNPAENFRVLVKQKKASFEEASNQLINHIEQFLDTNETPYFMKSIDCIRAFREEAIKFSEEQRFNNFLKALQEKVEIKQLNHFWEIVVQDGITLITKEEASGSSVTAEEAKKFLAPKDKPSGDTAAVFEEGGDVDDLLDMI
Method: Purification of Ku full-length (KuFL) for cryo-EM experiments was carried out as described previously ([5]). Expression and purification of KuFL for biophysical experiments was carried out as described previously ([20]). The full-length human Ku heterodimer subunits (Ku70 1–609, Ku80 1–732) were cloned into a Multibac vector ([21]). The construct has a 10× His-tag and a TEV site on the N-terminus of Ku80 and no-tag on Ku70. Protein production was initiated in Sf21 cells by infection with the baculovirus stock at MOI of 5 × 10^−3 and cells were collected 5–6 days after the infection (3–4 days after the proliferation arrest). Cells were sonicated and the supernatant was incubated with Benzonase (300 units for 30 min at 4°C). The Ku heterodimer was purified on a NiNTA-Agarose affinity column (Protino, Macherey Nagel) with a 1 M NaCl wash step to remove DNA excess. The eluted Ku was then bound onto an anion exchange column (Resource Q, Cytiva) equilibrated in 20 mM Tris pH 8.0, 50 mM NaCl, 50 mM KCl, 10 mM β-mercaptoethanol and eluted with a salt gradient. The final yield was about 20 mg of purified heterodimer per litre of culture. KuΔC constructs, heterodimer deleted of its C-terminal region (Ku70 1–544, Ku80 1–551) for X-ray crystallography, Ku mutants, Ku-2E (Ku with mutation in K357E on Ku70 and K481E on Ku80) and Ku-4E (Ku with mutations in H359E and H360E on Ku70 and K413E and H414E on Ku80) were cloned in the same vector and produced following the same protocol as KuFL expressed in Sf21 insect cells.
Calorimetry. Interactions between KuFL and inositol phosphates (IPs) (IP6 and IP6 analogues) were determined by Isothermal Titration Calorimetry (ITC) using a VP-ITC calorimeter (Malvern). Prior to measurements, all solutions were degassed under vacuum. The reaction cell of the ITC (volume 1.8 mL) was loaded with Ku heterodimers at 4 µM concentration. […] The free energy of binding (ΔG) and the entropy (ΔS) were determined using the classical thermodynamic formula, ΔG = - RT ln(Ka) and ΔG = ΔH - TΔS. […]

[2] = biological target: full-length human Ku70–Ku80 heterodimer (KuFL), expressed in Sf21 insect cells (human) (UniProt P12956); test: switchSENSE; fluorescent DNA hybridised on the gold surface of the chip, Ku bound to this DNA in saturating conditions, then XLF injected (1, 2 and 8 μM); 20 μM IP6 during Ku association and XLF titration; biphasic, two steps binding mode fit; apparent affinities
Chain of full-length human Ku70–Ku80 heterodimer (KuFL), expressed in Sf21 insect cells (human) (P12956 whole entry, chain 1 of 2): as the sequence (P12956 whole entry) above
Chain of full-length human Ku70–Ku80 heterodimer (KuFL), expressed in Sf21 insect cells (human) (P13010 whole entry, chain 2 of 2, further chain): as the sequence (P13010 whole entry) above

[3] = biological target: full-length human Ku70–Ku80 heterodimer (KuFL), expressed in Sf21 insect cells (human) (UniProt P12956); test: switchSENSE; fluorescent DNA hybridised on the gold surface of the chip, Ku bound to this DNA in saturating conditions, then XLF injected (1, 2 and 8 μM); absence of IP6; biphasic, two steps binding mode fit; apparent affinities
HEK-293T cells = test: Dual dEJ/HR reporter assay; assay type: cell-based, human; conditions: versus control without inhibitors; for expression of the HR marker BFP / HR activity: NU7441 3 μM or B02 10 μM
Source text: The dEJ-HR dual reporter substrate for both direct end-joining and homologous recombination was assembled into the pEGFP-N1 vector (Clontech) following sequential insertion of various PCR products, oligonucleotide linkers and synthetic DNA fragments (see Supplementary Information for a detailed description). The Cas9 and guide RNA co-expression plasmid used to cleave the reporter substrate was generated by inserting the pre-annealed gRNA-dEJ-HR-F and gRNA-dEJ-HR-R oligonucleotides into the BbsI restriction sites of pX330-U6-Chimeric_BB-CBh-hSpCas9 (a gift from Feng Zhang; Addgene plasmid # 42230; http://n2t.net/addgene:42230; RRID:Addgene_42230). The pmCherry-NLS plasmid (a gift from Martin Offterdinger; Addgene plasmid # 39319; http://n2t.net/addgene:39319; RRID:Addgene_39319) was used as an internal control of transfection efficiency in end-joining assays.
Cell lines and cultures are described in Figure 5 legend. HEK-293T cells were seeded in 6-well plates and transfected 24 h later with a mix of reporter substrate (500 ng), Cas9/gRNA expressing vector (300 ng) and pmCherry-NLS control plasmid (200 ng) using JetPEI (PolyPlus-Transfection, Illkirch-Graffenstaden, France). When indicated, cells were treated at the time of transfection with 3 μM DNA-PK inhibitor NU7441 (Tocris, Bristol, UK) or 10 μM Rad51 inhibitor B02 (Sigma-Aldrich St. Louis, MO). Cells were trypsinized 2 days post-transfection, washed with PBS and analysed by flow cytometry on a Fortessa X-20 cell analyzer (BD Biosciences). For each cell population, the integrated fluorescence signal (% positive cells × mean fluorescence) was calculated for each repair readout (i.e. GFP for direct end-joining and BFP for gene conversion) and normalized to that of transfection control (mCherry). Western blots, antibodies, oligonucleotides, plasmids and DNA manipulations, generation of U2OS shKu80 cells and generation of HEK-293T mAID-Ku70/mAID-Ku80 cells are described in Supplemental Information.

[4] = system: Ku70-Ku80 full length (KuFL, His-Ku80) (human); test: switchSENSE; conditions: Single-molecule: 20 mM Tris pH 7.5, 100 mM KCl, 2.5 mM MgCl2, 1 mg/mL BSA, 2 mM DTT, 0.8% glucose, 0.1% Trolox, 1% GLOX, 1 nM Ku, switchSENSE (15-240 nM Ku) …
[5] = system: HEK-293T cells expressing Ku-wt; test: Cell fractionation and western blot of chromatin and soluble fractions; assay type: cell-based, human; conditions: 1 h
Method: Stock solution of Calicheamicin γ1 (Cali), gift from P.R. Hamann (Wyeth Research, Pearl River, NY, USA), was made at 40 μM in ethanol and stored at –20°C. For drug-exposure, exponentially growing cells in […] were either mock-treated or treated with Cali in fresh medium for 1 h at 37°C. Then cells were washed with phosphate-buffered saline and trypsinized. Pellets were fractionated as follows. Cells were first resuspended for 7 min on ice in 120 μL of extraction buffer 1 (50 mM HEPES pH 7.5, 150 mM NaCl, 1 mM EDTA) containing 0.1% Triton X-100 and supplemented with the Halt protease and phosphatase inhibitor cocktail (Thermo Fisher Scientific) with intermittent gentle vortexing. […] Protein content was measured with BCA reagent (Pierce) and equivalent protein amounts were denaturated in loading buffer at 1× final concentration (50 mM Tris–HCl pH 6.8, 10% glycerol, 1% SDS, 300 mM 2-mercaptoethanol, 0.01% bromophenol blue) at 95°C for 5 min, separated on SDS-PAGE gels (BioRad 4–15% TGX pre-cast gels) before overnight transfer onto Immobilon-P polyvinylidene difluoride (PVDF, Millipore) membranes. […]

Chain of XLF (Q9H9Q4 whole entry): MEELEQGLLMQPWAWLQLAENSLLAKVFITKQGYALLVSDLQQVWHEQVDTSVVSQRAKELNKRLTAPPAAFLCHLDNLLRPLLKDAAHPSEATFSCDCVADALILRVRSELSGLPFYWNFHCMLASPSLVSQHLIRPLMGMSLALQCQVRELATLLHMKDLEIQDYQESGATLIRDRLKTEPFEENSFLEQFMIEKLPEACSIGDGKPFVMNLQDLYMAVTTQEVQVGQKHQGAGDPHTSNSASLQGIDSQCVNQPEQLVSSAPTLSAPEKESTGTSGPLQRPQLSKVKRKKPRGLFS

- Kd [1]: 22 ± 6.8 nM
Compound: O=P(O)(O)OC1C(OP(=O)(O)O)C(OP(=O)(O)O)C(OP(=O)(O)O)C(OP(=O)(O)O)C1OP(=O)(O)O [D-chiro-IP6, D-chiro-inositol 1,2,3,4,5,6-hexakisphosphate sodium salt]

Compound: O=P(O)(O)O[C@H]1[C@H](OP(=O)(O)O)[C@@H](OP(=O)(O)O)[C@H](OP(=O)(O)O)[C@@H](OP(=O)(O)O)[C@H]1OP(=O)(O)O [scyllo-IP6, scyllo-inositol hexakisphosphate sodium salt]
- Kd [1]: 18 ± 2.5 nM

- KD1 (first of two apparent affinities, biphasic fit; with 20 μM IP6) [2]: 1.2 µM
- KD2 (second of two apparent affinities, biphasic fit; with 20 μM IP6) [2]: 0.13 µM
- KD1 (first of two apparent affinities, biphasic fit; without IP6) [3]: 3.6 µM
- KD2 (second of two apparent affinities, biphasic fit; without IP6) [3]: 1.9 µM
Compound: XLF (from UniProt Q9H9Q4 1-299) (natural protein)

Compound: O=c1cc(N2CCOCC2)oc2c(-c3cccc4c3sc3ccccc34)cccc12 [NU7441]
- expression of the HR marker BFP / HR activity (HEK-293T cells): compensatory increase in HR
- expression of the direct EJ (dEJ) marker GFP (HEK-293T cells; NU7441 3 μM): decreased

Compound: 48 bp dsDNA (switchSENSE)
- Kd ([4]; 3 uM IP6, kon 6.35e5 M-1 s-1, koff 1.27e-3 s-1): 1.99 nM
- Kd ([4]; no IP6, kon 6.94e5 M-1 s-1, koff 2.26e-3 s-1): 3.25 nM

Compound: O=c1c2ccccc2nc(/C=C/c2cccnc2)n1Cc1ccccc1 [B02]
- expression of the HR marker BFP / HR activity (HEK-293T cells): decreased

Compound: Calicheamicin γ1
- XLF, Lig4 and PAXX in the soluble proteins fraction ([5]; highest dose of calicheamicin): depleted from the soluble proteins fraction
- NHEJ proteins including XLF and PAXX in the chromatin fraction ([5]; increasing concentrations of calicheamicin): increasingly detected in the chromatin fraction
